# Several values for one entry are separate records, joined by “and”; a condition that tells them apart may be missing. Equal entries are not always repeated.
# Columns and labels:
# [1] = biological target: T1, hURAT1-S35N/F365Y double point mutant (Homo sapiens, UniProt Q96S37, F365Y/S35N); test: URAT1 uric acid transport activity assay; assay type: cell-based
# T1 construct: hURAT1 and rURAT1 are 553 amino acid proteins with 12 transmembrane segments; expressed in transfected cells; host or cells: HEK-293T
# T1 sequence (Q96S37 whole entry S35N/F365Y): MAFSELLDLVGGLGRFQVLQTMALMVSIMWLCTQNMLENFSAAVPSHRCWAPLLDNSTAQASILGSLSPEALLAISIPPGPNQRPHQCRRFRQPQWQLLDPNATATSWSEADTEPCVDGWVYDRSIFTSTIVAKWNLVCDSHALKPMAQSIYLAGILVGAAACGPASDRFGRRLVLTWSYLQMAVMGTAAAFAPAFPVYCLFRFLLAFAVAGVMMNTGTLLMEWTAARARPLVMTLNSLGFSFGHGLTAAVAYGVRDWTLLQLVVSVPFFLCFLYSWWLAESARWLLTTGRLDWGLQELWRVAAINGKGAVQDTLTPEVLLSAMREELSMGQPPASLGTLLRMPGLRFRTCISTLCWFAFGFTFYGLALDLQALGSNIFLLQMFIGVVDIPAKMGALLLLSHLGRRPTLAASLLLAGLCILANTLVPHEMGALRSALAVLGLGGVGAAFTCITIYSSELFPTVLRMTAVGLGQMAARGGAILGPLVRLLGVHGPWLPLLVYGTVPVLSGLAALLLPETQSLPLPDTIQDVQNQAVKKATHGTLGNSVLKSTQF
# [2] = biological target: h-r EC1,TM2-4 URAT1 chimera (Homo sapiens, UniProt Q96S37, A103T/A133T/A162V/A184S/A189I/A193M/A195T/A226S/A51V/A59S/A71V/D100E/E110D/E70D/F192L/F208S/G218A/H142Q/I126T/I75V/K134T/K145R/L174R/L206V/L64P/L67F/L99I/M183V/M186S/N136D/N82D/P101S/P165H/P69R/Q182L/R124H/R89L/S107N/S46H/S66D/S68G/T128R/T219S/V117E/V198L/Y152F); test: cell-based; conditions: IC50 (uric acid transport), HEPES pH 7.3, 100 μM 14C-uric acid
# h-r EC1,TM2-4 URAT1 chimera, sequence (Q96S37 1-553 with the stated changes): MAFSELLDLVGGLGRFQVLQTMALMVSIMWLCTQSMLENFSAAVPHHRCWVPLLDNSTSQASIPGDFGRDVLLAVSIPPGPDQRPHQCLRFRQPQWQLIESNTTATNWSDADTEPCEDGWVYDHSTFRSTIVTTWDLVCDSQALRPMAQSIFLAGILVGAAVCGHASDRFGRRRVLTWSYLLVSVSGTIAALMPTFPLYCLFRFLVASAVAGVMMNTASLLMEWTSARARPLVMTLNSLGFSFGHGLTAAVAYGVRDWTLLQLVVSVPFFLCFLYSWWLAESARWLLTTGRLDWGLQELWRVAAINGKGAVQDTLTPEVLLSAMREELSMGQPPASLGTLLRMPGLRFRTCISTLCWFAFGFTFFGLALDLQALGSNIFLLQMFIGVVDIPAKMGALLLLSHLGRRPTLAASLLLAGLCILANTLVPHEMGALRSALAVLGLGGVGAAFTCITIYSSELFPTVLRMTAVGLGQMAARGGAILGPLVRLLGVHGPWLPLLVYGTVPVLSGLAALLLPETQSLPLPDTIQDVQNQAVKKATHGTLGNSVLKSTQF
# Text: (§1) hURAT1 (GenBank BC053348.1) and rURAT1 (NCBI NM_001034943.1) genes were purchased from Origene Technologies, Inc. and subcloned into pCMV6/neo using NotI, creating pCMV6/neo-hURAT1 and pCMV6/neo-rURAT1. Mutants were produced by polymerase chain reaction (PCR) or site-directed mutagenesis using the QuikChange Lightning Multi Site-Directed Mutagenesis Kit (Agilent Technologies). […] Detailed methods are provided in Supplementary Methods, and primers are listed in Supplementary Table 1. […] Residues in rURAT1 and hOAT1 that correspond to the residues in hURAT1 were identified from aligned protein sequences (Supplementary Fig. 1)[50].
# (§2) DNA (10 μg) was mixed with 30 μl of DreamFect Gold (Boca Scientific) in 2 ml OptiMem (Life Technologies). […]
# (§3) Compounds were serially diluted into assay buffer and added to the cells for 5 minutes prior to addition of radiolabelled uric acid substrate. […] Each treatment was measured in triplicate. […]
# (§4) Nonlinear regression analyses using GraphPad Prism software were used to calculate the potency of URAT1 inhibitors (IC50 values) from log (inhibitor) versus response - variable slope (four parameters) equations. Statistical significance was assessed using Student’s unpaired t-tests.
# h-r IC3 URAT1 chimera = h-r IC3 URAT1 chimera (Homo sapiens, UniProt Q96S37, F348L/G295S/G307R/G309K/G331N/I305V/K308R/L287I/L321R/L328P/M330G/M343T/P317V/P333A/P334G/Q297R/Q312A/R325Q/R342H/S329N/S336R/T289V/V311E/W294Q/W300Q); test: cell-based
# h-r IC3 URAT1 chimera, sequence (Q96S37 1-553 with the stated changes): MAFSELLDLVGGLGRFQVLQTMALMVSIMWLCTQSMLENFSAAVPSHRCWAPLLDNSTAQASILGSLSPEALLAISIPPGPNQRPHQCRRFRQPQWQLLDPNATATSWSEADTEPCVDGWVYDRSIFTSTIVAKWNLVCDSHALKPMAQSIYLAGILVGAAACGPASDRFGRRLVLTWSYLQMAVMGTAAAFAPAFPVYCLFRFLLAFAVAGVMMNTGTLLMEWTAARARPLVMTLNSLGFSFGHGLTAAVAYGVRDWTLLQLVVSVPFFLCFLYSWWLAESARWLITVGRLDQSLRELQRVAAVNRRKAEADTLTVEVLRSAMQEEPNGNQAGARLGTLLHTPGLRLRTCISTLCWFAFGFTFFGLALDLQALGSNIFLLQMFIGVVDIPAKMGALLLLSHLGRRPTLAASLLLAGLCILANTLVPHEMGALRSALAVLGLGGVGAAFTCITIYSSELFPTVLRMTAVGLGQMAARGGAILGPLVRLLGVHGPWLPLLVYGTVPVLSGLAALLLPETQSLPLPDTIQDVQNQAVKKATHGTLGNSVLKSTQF
# Text: as §1, §2, §3, §4
# h-r TM5-N URAT1 chimera = biological target: T2, h-r TM5-N URAT1 chimera (Homo sapiens, UniProt Q96S37, S238A/V233M); test: URAT1 uric acid transport activity assay; assay type: cell-based, human/rat; conditions: HEPES pH 7.3, 100 μM 14C-uric acid
# T2 construct: expressed in transfected cells; host or cells: HEK-293T
# T2 sequence (Q96S37 whole entry V233M/S238A): as the sequence (Q96S37 whole entry S35N/F365Y) above, with N35S, V233M, S238A, Y365F counted along it
# Text: as §1
# (§5) DNA (10 μg) was mixed with 30 μl of DreamFect Gold (Boca Scientific) in 2 ml OptiMem (Life Technologies). After 20 minutes, 18 ml of media containing 2 × 10^7 cells in suspension was added and mixed, and 200 μl per well were plated onto white clear-bottomed poly-D-lysine coated 96-well plates (BD Biosciences). The cells were assayed the following day.
# (§6) Compounds were serially diluted into assay buffer and added to the cells for 5 minutes prior to addition of radiolabelled uric acid substrate. URAT1-expressing cells were incubated with 100 μM ^14C-uric acid for 10 minutes. […] Each treatment was measured in triplicate.
# (§7) Unlabelled uric acid was prepared at a 20 mM stock just prior to use in a solution containing 20 mM dibasic potassium phosphate and 20 mM potassium hydroxide.
# as §4
# h-r TM7 URAT1 chimera = biological target: T3, h-r TM7 URAT1 chimera (Homo sapiens, UniProt Q96S37, C351F/F365Y/T354M); test: URAT1 uric acid transport activity assay; assay type: cell-based, human/rat
# T3 construct: expressed in transfected cells; host or cells: HEK-293T
# T3 sequence (Q96S37 whole entry C351F/T354M/F365Y): as the sequence (Q96S37 whole entry S35N/F365Y) above, with N35S, C351F, T354M counted along it
# Text: as §1, §5, §6, §7, §4
# h-r TM8 URAT1 chimera = biological target: T4, h-r TM8 URAT1 chimera (Homo sapiens, UniProt Q96S37, A392V/A396S/F384L/H402R/I390L/M383A/P407L/V387I); test: URAT1 uric acid transport activity assay; assay type: cell-based, human/rat; conditions: HEPES pH 7.3, 100 μM 14C-uric acid
# T4 construct: expressed in transfected cells; host or cells: HEK-293T
# T4 sequence (Q96S37 whole entry M383A/F384L/V387I/I390L/A392V/A396S/H402R/P407L): as the sequence (Q96S37 whole entry S35N/F365Y) above, with N35S, Y365F, M383A, F384L, V387I, I390L, A392V, A396S, H402R, P407L counted along it
# Text: as §1, §5, §6, §7, §4
# h-r TM9-N URAT1 chimera = biological target: T5, h-r TM9-N URAT1 chimera (Homo sapiens, UniProt Q96S37, A411S/A416P/L414V); test: URAT1 uric acid transport activity assay; assay type: cell-based, human/rat; conditions: HEPES pH 7.3, 100 μM 14C-uric acid
# T5 construct: expressed in transfected cells; host or cells: HEK-293T
# T5 sequence (Q96S37 whole entry A411S/L414V/A416P): as the sequence (Q96S37 whole entry S35N/F365Y) above, with N35S, Y365F, A411S, L414V, A416P counted along it
# Text: as §1, §5, §6, §7, §4
# [3] = biological target: T6, r-h TM1 chimera (hURAT1 residues 1–99 and rURAT1 residues 100–553) (UniProt Q3ZAV1+Q96S37); test: URAT1 uric acid transport activity assay; assay type: cell-based, human/rat; conditions: HEPES pH 7.3, 100 μM 14C-uric acid
# T6 construct: The chimera r-hTM1, consisting of hURAT1 residues 1–99 and rURAT1 residues 100–553; expressed in transfected cells; host or cells: HEK-293T
# T6 sequence (Q96S37 1-99, change not shown): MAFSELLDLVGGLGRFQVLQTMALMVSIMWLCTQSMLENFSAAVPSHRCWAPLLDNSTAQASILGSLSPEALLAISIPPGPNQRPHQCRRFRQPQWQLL
# T6 sequence (Q3ZAV1 100-553, change not shown): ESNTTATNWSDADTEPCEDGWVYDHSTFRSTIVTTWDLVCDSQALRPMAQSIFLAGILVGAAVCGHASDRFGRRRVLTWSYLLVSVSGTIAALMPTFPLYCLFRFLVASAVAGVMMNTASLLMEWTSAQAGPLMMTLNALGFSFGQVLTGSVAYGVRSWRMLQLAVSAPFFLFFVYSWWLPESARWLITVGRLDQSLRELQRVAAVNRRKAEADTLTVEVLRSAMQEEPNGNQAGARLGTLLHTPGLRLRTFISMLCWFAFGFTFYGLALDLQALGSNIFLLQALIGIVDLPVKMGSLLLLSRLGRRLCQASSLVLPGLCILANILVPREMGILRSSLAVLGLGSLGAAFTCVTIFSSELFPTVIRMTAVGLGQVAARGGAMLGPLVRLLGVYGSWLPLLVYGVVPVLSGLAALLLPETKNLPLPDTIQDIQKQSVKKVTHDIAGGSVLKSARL
# Text: as §1, §5, §6, §7, §4
# [4] = biological target: T7, h-C32T hURAT1 point mutant (Homo sapiens, UniProt Q96S37, C32T); test: URAT1 uric acid transport activity assay; assay type: cell-based; conditions: HEPES pH 7.3, 100 μM 14C-uric acid
# T7 construct: expressed in transfected cells; host or cells: HEK-293T
# T7 sequence (Q96S37 whole entry C32T): as the sequence (Q96S37 whole entry S35N/F365Y) above, with C32T, N35S, Y365F counted along it
# [5] = biological target: T8, h-C351F/T354M hURAT1 double point mutant (Homo sapiens, UniProt Q96S37, C351F/T354M); test: URAT1 uric acid transport activity assay; assay type: cell-based; conditions: HEPES pH 7.3, 100 μM 14C-uric acid
# T8 construct: expressed in transfected cells; host or cells: HEK-293T
# T8 sequence (Q96S37 whole entry C351F/T354M): as the sequence (Q96S37 whole entry S35N/F365Y) above, with N35S, C351F, T354M, Y365F counted along it
# In short: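 Cells expressing site-directed rat URAT1 mutants were exposed to inhibitor dilutions for 5 minutes before radiolabelled uric acid (100 μM) was added for 10 minutes. Potency was derived by nonlinear regression of log inhibitor versus response.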
# [6] = biological target: T9, h-I481M hURAT1 point mutant (Homo sapiens, UniProt Q96S37, I481M); test: URAT1 uric acid transport activity assay; assay type: cell-based
# T9 construct: expressed in transfected cells; host or cells: HEK-293T
# T9 sequence (Q96S37 whole entry I481M): as the sequence (Q96S37 whole entry S35N/F365Y) above, with N35S, Y365F, I481M counted along it
# [7] = biological target: T10, h-M22V hURAT1 point mutant (Homo sapiens, UniProt Q96S37, M22V); test: URAT1 uric acid transport activity assay; assay type: cell-based; conditions: HEPES pH 7.3, 100 μM 14C-uric acid
# T10 construct: expressed in transfected cells; host or cells: HEK-293T
# T10 sequence (Q96S37 whole entry M22V): as the sequence (Q96S37 whole entry S35N/F365Y) above, with M22V, N35S, Y365F counted along it
# [8] = biological target: T11, h-M29L hURAT1 point mutant (Homo sapiens, UniProt Q96S37, M29L); test: URAT1 uric acid transport activity assay; assay type: cell-based; conditions: HEPES pH 7.3, 100 μM 14C-uric acid
# T11 construct: expressed in transfected cells; host or cells: HEK-293T
# T11 sequence (Q96S37 whole entry M29L): as the sequence (Q96S37 whole entry S35N/F365Y) above, with M29L, N35S, Y365F counted along it
# [9] = biological target: T12, h-M474V hURAT1 point mutant (Homo sapiens, UniProt Q96S37, M474V); test: URAT1 uric acid transport activity assay; assay type: cell-based; conditions: HEPES pH 7.3, 100 μM 14C-uric acid
# T12 construct: expressed in transfected cells; host or cells: HEK-293T
# T12 sequence (Q96S37 whole entry M474V): as the sequence (Q96S37 whole entry S35N/F365Y) above, with N35S, Y365F, M474V counted along it
# [10] = biological target: T13, h-S27P hURAT1 point mutant (Homo sapiens, UniProt Q96S37, S27P); test: URAT1 uric acid transport activity assay; assay type: cell-based; conditions: HEPES pH 7.3, 100 μM 14C-uric acid
# T13 construct: expressed in transfected cells; host or cells: HEK-293T
# T13 sequence (Q96S37 whole entry S27P): as the sequence (Q96S37 whole entry S35N/F365Y) above, with S27P, N35S, Y365F counted along it
# [11] = biological target: T14, h-T21A hURAT1 point mutant (Homo sapiens, UniProt Q96S37, T21A); test: URAT1 uric acid transport activity assay; assay type: cell-based; conditions: HEPES pH 7.3, 100 μM 14C-uric acid
# T14 construct: expressed in transfected cells; host or cells: HEK-293T
# T14 sequence (Q96S37 whole entry T21A): as the sequence (Q96S37 whole entry S35N/F365Y) above, with T21A, N35S, Y365F counted along it
# [12] = biological target: T15, h-V18L hURAT1 point mutant (Homo sapiens, UniProt Q96S37, V18L); test: URAT1 uric acid transport activity assay; assay type: cell-based; conditions: HEPES pH 7.3, 100 μM 14C-uric acid
# T15 construct: expressed in transfected cells; host or cells: HEK-293T
# T15 sequence (Q96S37 whole entry V18L): as the sequence (Q96S37 whole entry S35N/F365Y) above, with V18L, N35S, Y365F counted along it
# [13] = biological target: T16, h-V26T hURAT1 point mutant (Homo sapiens, UniProt Q96S37, V26T); test: URAT1 uric acid transport activity assay; assay type: cell-based; conditions: HEPES pH 7.3, 100 μM 14C-uric acid
# T16 construct: expressed in transfected cells; host or cells: HEK-293T
# T16 sequence (Q96S37 whole entry V26T): as the sequence (Q96S37 whole entry S35N/F365Y) above, with V26T, N35S, Y365F counted along it
smiles,measurement,setting,value
O=c1[nH]c(=O)c2[nH]c(=O)[nH]c2[nH]1 [uric acid],fold decrease in affinity of h-S35N/F365Y relative to hURAT1,[1]; from IC50 values,3.9 fold
same,IC50,"[1]; hURAT1-S35N/F365Y, MES pH 5.5, 100 μM 14C-uric acid",960 µM
O=C1C(CC[S+]([O-])c2ccccc2)C(=O)N(c2ccccc2)N1c1ccccc1 (stereo not drawn) [sulfinpyrazone],IC50,[2],3 µM and 3.4 µM
same,IC50,h-r IC3 URAT1 chimera,67 ± 15 µM
same,IC50,h-r TM5-N URAT1 chimera,37 ± 9 µM
same,fold reduced affinity of h-r TM7 compared to hURAT1,h-r TM7 URAT1 chimera; from IC50 values,8 fold
same,IC50,"h-r TM7 URAT1 chimera; h-r TM7, HEPES pH 7.3, 100 μM 14C-uric acid",254 ± 47 µM
same,IC50,h-r TM8 URAT1 chimera,29 ± 13 µM
same,IC50,h-r TM9-N URAT1 chimera,36 ± 17 µM
same,IC50,[3],87 ± 25 µM
same,IC50,[4],29 ± 3.2 µM
same,IC50,[5],60 ± 5.9 µM
same,fold reduced affinity of h-I481M compared to hURAT1,[6]; from IC50 values,4 fold
same,IC50,"[6]; h-I481M, HEPES pH 7.3, 100 μM 14C-uric acid",118 ± 8.1 µM
same,IC50,[7],28 ± 3.1 µM
same,IC50,[8],8.5 µM and 9 µM
same,IC50,[9],30 ± 3.4 µM
same,IC50,[10],9.3 µM and 9 µM
same,IC50,[11],12 ± 2.3 µM
same,IC50,[12],19 ± 4.7 µM
same,IC50,[13],21 ± 4.7 µM

# Reference: publication PMC5054527, “Mechanism of high affinity inhibition of the human urate transporter URAT1” (Scientific Reports, 2016)
